One may read the half-life as how long it takes for the measured level to halve. As usually defined, the Cmax is the maximum level reached in the sampled fluid or tissue. What is called AUC(0-t) is the area under the concentration-time curve up to a stated or last time point. Read a low AUC(0-t) as less exposure.

Data on eight compounds can be found in ChEMBL document CHEMBL4616702 (ACS Med Chem Lett, 2020).

Data set [1] is described as follows: Half life in rat liver microsomes in presence of NADPH by LC/MS/MS metho. The data set is classed as ADME, Microsome. Conditions: for half-life: liver microsomes; for t1/2: microsomes.
Data set [2] in a line: Half life in human liver microsomes in presence of NADPH by LC/MS/MS method. The data set is classed as ADME, Microsome. (Liver microsomes are a subcellular fraction often used to study metabolism.)
A short description of data set [3]: Half life in mouse liver microsomes in presence of NADPH by LC/MS/MS method. It is filed as ADME, Microsome. Conditions: for half-life: liver microsomes.
Data set [4] is described as follows: Drug concentration in Balb/c mouse at 10 mg/kg, po measured upto 24 hrs. Conditions: in vivo, read-out: Drug uptake. The data set is classed as ADME, organism-based.
A short description of data set [5]: Cmax in Balb/c mouse at 10 mg/kg, po. It is filed as ADME, organism-based. The arrangement: dose 10 mg/kg, route oral. As to conditions: in vivo.
Data set [6] is described as follows: AUC (0 to 24 hrs) in Balb/c mouse at 10 mg/kg, po. The data set is classed as ADME, organism-based. The arrangement: dose 10 mg/kg, time < 24 hr, route oral. Conditions: in vivo.

Where only a bound is given, the exact number is not on record here.

In the case of `O=C(O)[C@H]1CC[C@H](C(=O)N2CC[C@@]3(S(=O)(=O)c4ccc(F)cc4)c4ccc(C(F)(C(F)(F)F)C(F)(F)F)cc4CC[C@@H]23)CC1`, the half-life in data set [1], in data set [2] and in data set [3] was above 2 h throughout.

For the compound `O=C(N1CC[C@@]2(S(=O)(=O)c3ccc(F)cc3)c3ccc(C(F)(C(F)(F)F)C(F)(F)F)cc3CC[C@@H]12)C1(O)CCS(=O)(=O)CC1`, the half-life in data set [1], in data set [2] and in data set [3] was above 2 h throughout.

Consider `C[C@H]1C[C@H](C(=O)O)CC[C@H]1C(=O)N1CC[C@@]2(S(=O)(=O)c3cccc(F)c3)c3ccc(C(F)(C(F)(F)F)C(F)(F)F)cc3CC[C@@H]12`, for which the half-life in data set [1] is 1.78 h; in data set [2], above 2 h; in data set [3] it was above 2 h.

For the compound `C[C@H]1C[C@H](C(=O)N2CC[C@@]3(S(=O)(=O)c4cccc(F)c4)c4ccc(C(F)(C(F)(F)F)C(F)(F)F)cc4CC[C@@H]23)CC[C@H]1C(=O)O`, the half-life in data set [1], in data set [2] and in data set [3] was above 2 h throughout. In data set [4], the concentration at 24 h turned out to be 0.78 µM. The same compound had a Cmax in data set [5] of 12 µM. In addition, the exposure AUC(0-t) at 24 h in data set [6] amounted to 72 µM·h.

As for `C[C@@H]1C[C@H](C(=O)N2CC[C@@]3(S(=O)(=O)c4ccc(F)cc4)c4ccc(C(F)(C(F)(F)F)C(F)(F)F)cc4CC[C@@H]23)CC[C@H]1C(=O)O`, the half-life was 1.22 h in data set [1], above 2 h in data set [2] and above 2 h in data set [3]. The concentration at 24 h in data set [4] is 2.2 µM. The same compound yielded a Cmax in data set [5] of 9 µM. This compound also yielded an area under the curve AUC(0-t) at 24 h in data set [6] of 134 µM·h.

Turning to `C[C@@H]1C[C@H](C(=O)O)CC[C@H]1C(=O)N1CC[C@@]2(S(=O)(=O)c3ccc(F)cc3)c3ccc(C(F)(C(F)(F)F)C(F)(F)F)cc3CC[C@@H]12`, the half-life in data set [1], in data set [2] and in data set [3] was above 2 h in each case.

`C[C@H]1C[C@@H](C(=O)N2CC[C@@]3(S(=O)(=O)c4ccc(F)cc4)c4ccc(C(F)(C(F)(F)F)C(F)(F)F)cc4CC[C@@H]23)CCS1(=O)=O` (stereo in doubt; 3): in data set [1], the t1/2 is above 2 h. Further, the half-life in data set [2] and in data set [3] was above 2 h throughout.

Take `C[C@H]1C[C@@H](C(=O)N2CC[C@@]3(S(=O)(=O)c4ccc(F)cc4)c4ccc(C(F)(C(F)(F)F)C(F)(F)F)cc4CC[C@@H]23)CCS1(=O)=O` (stereo in doubt; 4): the t1/2 in data set [1] was found to be 0.55 h; in data set [3] (microsomes) it was 1.63 h.
